Measured values taken from patent US12060360B2, “Lysyl oxidase inhibitors” (The Institute of Cancer Research: Royal Cancer Hospital, priority 2017, dated 2024).
pIC50: −log10 of the molar value.

What was measured:
[1] = test system: MDA-MB-231 human breast adenocarcinoma; experiment: MDA-MB-231 xenografts, primary tumour volume T/C; type: in vivo; settings: 200 mg/kg po qd, ratio of average tumour volume treated/vehicle control, p<0.05
Description: (§1) All procedures involving animals were approved by the Animal Welfare and Ethical Review Body of the Institute of Cancer Research and Cancer Research UK Manchester Institute in accordance with National Home Office regulations under the Animals (Scientific Procedures) Act 1986 and according to the guidelines of the Committee of the National Cancer Research Institute Tumour size was determined by caliper measurements of tumour length, width and depth and volume was calculated as volume=0.5236×length×width×depth (mm).
MDA-MB-231 xenografts. Ncr nude female mice at 6 weeks old from Charles River were injected into the third upper nipple mammary fat pad with MDA-MB-231 Luc 4×10^6 in 100 ul PB (50:50 Matrigel). When tumours reach a mean of 80 mm^3 around 10 days post cell inoculation the animals are allocated in 4 groups of 8. LOX inhibitor treatment is then administrated by oral gavage dosing, at 0.2 ml/20 g bodyweight once daily for up to 28 consecutive days. Tumours and weights are measured twice weekly using calipers and the animals can be imaged using non invasive method by bioluminescence using IVIS 200 imaging machine, weekly using 150 mg/kg luciferin administrate intraperitoneal or subcutaneous. At the end of the study the animals are culled, and samples taken, fixed or snap frozen in liquid nitrogen. Frozen samples kept at −80 degree centigrade until being analyzed and the fixed samples stained according to desired marker.
(§2) For therapeutic efficacy assessment, the ratio of average tumour volume between compound treated and vehicle control treated (T/C) is calculated. Reduction in tumour volume in the compound treated group compared to vehicle-treated control group results in T/C<1. The efficacy of LOX inhibitors described in this invention, as measured by T/C in a pancreatic cancer model, a colorectal cancer model and a breast cancer model is shown in Table 2 and is significant (p<0.05) for all the data presented.

[2] = test system: MMTV-PyMT breast transgenic model primary tumour; experiment: MMTV-PyMT transgenic mouse breast cancer model, primary tumour T/C; type: in vivo; settings: 200 mg/kg po qd; ratio of average tumour volume treated/vehicle control; p<0.05
Description: as §1
(§3) MMTV-PyMT (Guy et al, 1992) (FVB) female mice were randomized by non-statistical methods to LOX inhibitor treatment groups from day 70 post-birth, when animals had no detectable tumour. Mice were treated daily by oral gavage with LOX inhibitor in vehicle, or daily vehicle (5% DMSO/2.5% Tween20 in water) by oral gavage. Tumour size was determined unblinded by caliper measurements of tumour length, width and depth and volume was calculated as 0.5236×length×width×depth (mm). In all experiments, mice were humanely killed and mammary tumours and lungs were collected when the primary tumours reached ethical limits or signs of ill health.
as §2

LOX = target: T1, LOX (Mus musculus, UniProt P28301); experiment: LOX activity in cysts assay (LOX-roGFP2 biosensor, MDCK cysts); type: cell-based; settings: MDCK cysts; for inhibition at 10 µM: inhibitor added 30 min prior to imaging, DMSO = 0%, BAPN 1 mM = 100% inhibition, read-out: LOX biosensor inhibition (cyst) @ 10 uM; for pIC50: roGFP2 ratio at basal surface, read-out: LOX biosensor IC50 (cyst)
T1 construct: Full length LOX cDNA was then PCR cloned into pEGFP-N1 (Clonetech), or biosensor vector proGFP2-N1; expressed in transfected cells; host or cells: MDCK cells grown as cysts on Matrigel, G418-selected
T1 sequence (P28301 163-411): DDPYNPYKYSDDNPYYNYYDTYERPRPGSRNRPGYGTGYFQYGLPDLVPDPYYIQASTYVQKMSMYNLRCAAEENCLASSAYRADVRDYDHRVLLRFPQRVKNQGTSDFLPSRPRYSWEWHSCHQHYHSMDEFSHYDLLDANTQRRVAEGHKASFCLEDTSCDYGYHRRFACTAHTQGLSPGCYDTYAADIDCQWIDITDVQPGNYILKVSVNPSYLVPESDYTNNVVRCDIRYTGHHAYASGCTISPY
Description: LOX Activity in Cysts Assay (Tang et al, 2017).
All cell lines used in this study were purchased from American Type Culture Collection (ATCC). Mycoplasma contamination was routinely monitored by PCR. Cells used were not found to be Mycoplasma positive. MDCK cell lines were cultured in Dulbecco's Modified Eagle Medium (DMEM) supplemented with 10% fetal bovine serum (FBS) and 1% Penicillin Streptomycin solution (Pen Strep). For GFP constructs transfection in MDCK cells, lipofectamine 3000 was used according to manufactures protocols. Cells were either selected with G418 (Life Technologies) at 5 mg/ml. All cell culture reagents were purchased from Life Technologies.
To produce MDCK cysts, cells were cultured on Matrigel (Corning) with 2% Matrigel supplemented in DMEM with 10% FBS. Cysts were allowed to form for 10 days before subsequent studies.
Mouse LOX cDNA was purchased from OriGene. Full length LOX cDNA was then PCR cloned into pEGFP-N1 (Clonetech), or biosensor vector proGFP2-N1 (Hanson, 2004) using the following primers, […] (forward primer) and […] (reverse primer). For the insertion into pEGFP-N1 or proGFP2-N1, NheI and XhoI restriction sites were added to forward and reverse primers accordingly. Mutant LOX constructs were made using QuickChange II site-directed mutagenesis kit (Agilent Technologies) following manufacture's protocol using LOX-GFP as template. To generate, roGFP2 versions of LOX mutant constructs, LOX mutant cDNA was transferred from pEGFP-N1 to proGFP2-N1 using NheI and XhoI.
All photomicrographs were taken with a Leica TCS SP8 X confocal system. For LOX biosensor imaging, live MDCK cysts were used. The oxidised biosensor was excited using a 405 nm laser, while the reduced biosensor was excited with a 488 nm laser. Emission of the biosensor was recorded at 500 nm˜530 nm range using sequential scans. Ratio images were generated following a published protocol {Kardash, 2011 #376}. Note, while the published protocol generates YFP/CFP ratio images, we used it to generate Oxidised/Reduced (roGFP2 ratio) ratio images. The roGFP2 ratio at the basal surface of MDCK cysts was used to indicate LOX inhibition. LOX inhibitors were added 30 min prior to imaging.
For clarity, readout for DMSO treated cysts represents 0% inhibition (no inhibition) and readout for BAPN at 1 mM is used as 100% inhibition (full inhibition).

[3] = test system: PDAC TRP53R172H (p53 mut) cells (mouse pancreatic carcinoma); experiment: PDAC allografts, primary tumour volume T/C; type: in vivo; settings: ratio of average tumour volume treated/vehicle control, p<0.05
Description: as §1
PDAC allografts: CD1 nu/nu female mice at 6 weeks of age were inoculated subcutaneously in the right flank with 2×10^6 PDAC TRP53R172H (p53 mut) cells at 100 ul suspension per animal. In some examples, the oral dosing by metal gavage commences one day after cells inoculation, at 0.2 ml/20 g bodyweight per animal once daily for 2-4 weeks, with compound dissolved in 5.25% tween20/saline or 5% DMSO/water. In other examples, groups of 7-8 mice were assigned to treatment following stratified allocation of tumour volumes with a median size of circa 100 mm^3. […] Control animals received a similar dosage of vehicle (5.25% tween20/saline). Tumours and weights are measured twice weekly using calipers. At the end of the study the animals are culled, and samples taken, fixed or snap frozen in liquid nitrogen. Frozen samples kept at −80 degree centigrade until being analysed and the fixed samples stained according to the desired marker.
as §2

[4] = test system: MMTV-PyMT breast transgenic model lung metastases; experiment: MMTV-PyMT transgenic mouse breast cancer model, lung metastases quantification T/C; type: in vivo; settings: 200 mg/kg po qd, treated/vehicle control, p<0.05
Description: as §3
For lung metastases quantification, all mouse tissue samples were fixed in 10% formalin (Sigma) and embedded in paraffin. Samples were sectioned and hematoxylin and eosin (H&E) stained. Samples were imaged with a Leica CN400 slide scanner. Lung metastases were manually selected using Pen tool in ImageScope. Lung metastases number was counted and area was measured using ImageScope. The investigator was blinded to the experimental groups. The ratio of average metastases surface between compound treated and vehicle control treated (TIC) is calculated. The ratio of average metastases numbers between compound treated and vehicle control treated (T/C) is also calculated. Reduction in metastases area and/or in metastatses number in the compound treated group compared to vehicle-treated control group results in T/C<1. The antimetastatic efficacy of LOX inhibitors described in this invention, as measured by T/C in a model of breast cancer metastasising to lungs is shown in Table 2 and is significant (p<0.05) for all the data presented.

| Structure (SMILES) | response vs control in vivo at 200 mg/kg [1] [%] | T/C MMT-PyMT breast transgenic model - primary tumour [2] | inhibition at 10 µM (LOX) [%] | pIC50 (LOX) | T/C PDAC R172H (p53 mut) (mouse pancreatic carcinoma) - primary tumour ([3]; 200 mg/kg po qd) | T/C MMT-PyMT breast transgenic model - metastases b) Area ([4]; lung metastases area) | T/C MMT-PyMT breast transgenic model - metastases a) Count ([4]; lung metastases number) | T/C PDAC R172H (p53 mut) (mouse pancreatic carcinoma) - primary tumour ([3]; 100 mg/kg bid) |
| --- | --- | --- | --- | --- | --- | --- | --- | --- |
| CC1(C)C[C@@H]2CN(C(=O)NC3CCOCC3)C[C@H]1N(c1ccc(N3CCS(=O)(=O)CC3)cc1)C2 [Example 7, (1S,5S)-6-(4-(1,1-dioxidothiomorpholino)phenyl)-9,9-dimethyl-N-(tetrahydro-2H-pyran-4-yl)-3,6-diazabicyclo[3.2.2]nonane-3-carboxamide] | 34 | 0.25 | 88 | 6.27 | – | – | – | – |
| CCOc1ccc(N2C[C@H]3CN(C(=O)NCCO)C[C@@H]2C(C)(C)C3)cc1 [Example 12, (1S,5S)-N-(2-hydroxyethyl)-6-(4-ethoxyphenyl)-9,9-dimethyl-3,6-diazabicyclo[3.2.2]nonane-3-carboxamide] | – | 0.26 | – | 6.05 | 0.47 | – | – | – |
| COCCOc1ccc(N2C[C@H]3CN(C(=O)NCCO)C[C@@H]2C(C)(C)C3)cc1 [Example 27, (1S,5S)-N-(2-Hydroxyethyl)-6-(4-(2-methoxyethoxy)phenyl)-9,9-dimethyl-3,6-diazabicyclo[3.2.2]nonane-3-carboxamide] | 60 | – | 88 | 6.00 | – | – | – | – |
| CC1(C)C[C@@H]2CN(CCCC#N)C[C@H]1N(c1ccc(N3CCS(=O)(=O)CC3)cc1)C2 [Example 39, 4-((1R,5S)-6-(4-(1,1-dioxidothiomorpholino)phenyl)-9,9-dimethyl-3,6-diazabicyclo[3.2.2]nonan-3-yl)butanenitrile] | 48 | – | 75 | 5.50 | – | – | – | – |
| CCOc1ccc(N2C[C@H]3CN(C(=O)NCCc4c[nH]cn4)C[C@@H]2C(C)(C)C3)cc1 [Example 26, (1S,5S)-N-(2-(1H-imidazol-4-yl)ethyl)-6-(4-ethoxyphenyl)-9,9-dimethyl-3,6-diazabicyclo[3.2.2]nonane-3-carboxamide] | – | – | – | 6.47 | 0.46 | – | – | – |
| CC1(C)C[C@@H]2CN(C(=O)N3CCOCC3)C[C@H]1N(c1ccc(N3CCS(=O)(=O)CC3)cc1)C2 [Example 10, ((1S,5S)-6-(4-(1,1-dioxidothiomorpholino)phenyl)-9,9-dimethyl-3,6-diazabicyclo[3.2.2]nonan-3-yl)(morpholino)methanone] | 39 | 0.11 | 100 | > 6.74 | – | b) 0.0006 | a) 0.02 | – |
| CC1(C)C[C@@H]2CN(C(=O)NCCO)C[C@H]1N(c1ccc(N3CCOCC3)cc1)C2 [Example 4, (1S,5S)—N-(2-hydroxyethyl)-9,9-dimethyl-6-(4-morpholinophenyl)-3,6-diazabicyclo[3.2.2]nonane-3-carboxamide] | 35 | – | 88 | 6.21 | – | – | – | – |
| CC1(C)C[C@@H]2CN(C(=O)CCC#N)C[C@H]1N(c1ccc(N3CCS(=O)(=O)CC3)cc1)C2 [Example 49, 4-((1 S,5S)-6-(4-(1,1-Dioxidothiomorpholino)phenyl)-9,9-dimethyl-3,6-diazabicyclo[3.2.2]nonan-3-yl)-4-oxobutanenitrile] | 62 | – | 100 | – | – | – | – | – |
| CCOc1ccc(N2C[C@H]3CN(CC(O)CC#N)C[C@@H]2C(C)(C)C3)cc1 (stereo partly drawn) [Example 46, 4-((1R,5S)-6-(4-Ethoxyphenyl)-9,9-dimethyl-3,6-diazabicyclo[3.2.2]nonan-3-yl)-3-hydroxybutanenitrile] | – | – | 72 | – | – | – | – | – |
| CCOc1ccc(N2C[C@H]3CN(c4ccc(NC(C)=O)cc4)C[C@@H]2C(C)(C)C3)cc1 [Example 58, N-(4-((1R,5S)-6-(4-ethoxyphenyl)-9,9-dimethyl-3,6-diazabicyclo[3.2.2]nonan-3-yl)phenyl)acetamide] | – | – | 100 | – | – | – | – | – |
| CCOc1ccc(N2C[C@H]3CN(C(=O)NCCS(C)(=O)=O)C[C@@H]2C(C)(C)C3)cc1 [Example 13, (1S,5S)-6-(4-ethoxyphenyl)-9,9-dimethyl-N-(2-(methylsulfonyl)ethyl)-3,6-diazabicyclo[3.2.2]nonane-3-carboxamide] | 63 | – | – | 5.99 | – | – | – | 0.56 |
